Laboratory results: US20080188528A1, “Modulators of C3a receptor and methods of use thereof” (priority 2006, published 2008)
Structures can show the parent of a compound that is named as a salt.

target: T1, human C3a receptor (C3aR) (Homo sapiens, UniProt Q16581); assay: Inhibition of human [125I]-C3a binding to human C3a receptor (SPA, membranes of HEK293 cells expressing recombinant C3aR); settings: 0.1 nM [125I]-C3a, 3 hours at room temperature; Table 1
T1 construct: expressed in transfected cells
T1 sequence (Q16581 1-482): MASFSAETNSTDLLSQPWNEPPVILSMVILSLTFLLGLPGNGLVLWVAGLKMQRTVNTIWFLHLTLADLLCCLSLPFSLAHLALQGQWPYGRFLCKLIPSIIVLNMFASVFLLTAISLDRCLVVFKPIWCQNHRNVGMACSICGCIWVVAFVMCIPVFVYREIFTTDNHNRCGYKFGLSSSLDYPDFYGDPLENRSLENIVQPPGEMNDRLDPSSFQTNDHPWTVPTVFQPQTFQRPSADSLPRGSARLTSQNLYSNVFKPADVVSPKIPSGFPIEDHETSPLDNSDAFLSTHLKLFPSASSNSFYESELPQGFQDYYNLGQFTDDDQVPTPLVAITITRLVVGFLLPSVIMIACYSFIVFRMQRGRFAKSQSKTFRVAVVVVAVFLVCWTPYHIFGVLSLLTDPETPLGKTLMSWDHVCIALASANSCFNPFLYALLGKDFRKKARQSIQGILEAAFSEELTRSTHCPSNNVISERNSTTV
In short: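 HEK293 C3aR membranes were pre-coupled to WGA SPA beads and incubated 3 h at room temperature with 0.1 nM [125I]-C3a in HEPES pH 7.4 buffer containing 0.25% BSA and 0.2% CHAPS, DMSO ≤1%. Nonspecific binding was defined with 1 μM unlabeled C3a. IC50 came from nonlinear least-squares fitting.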

`CC(C)c1cccc(-c2ccccc2Cn2cccc(C(=O)N[C@@H](CCCNC(=N)N)C(=O)O)c2=O)c1` [Compound 29, (2S)-5-carbamimidamido-2-[({1-[(3′-isopropylbiphenyl-2-yl)methyl]-2-oxo-1,2-dihydropyridin-3-yl}carbonyl)amino]pentanoic acid•TFA] and `N=C(N)NCCC[C@H](NC(=O)c1cccn(Cc2ccccc2-c2cccc3ccccc23)c1=O)C(=O)O` [Compound 26, (2S)-5-carbamimidamido-2-[({1-[2-(1-naphthyl)benzyl]-2-oxo-1,2-dihydropyridin-3-yl}carbonyl)amino]pentanoic acid•TFA] cannot be ordered by IC50: < 0.05 µM for the first, < 0.05 µM for the second.

`N=C(N)NCCC[C@H](NC(=O)c1cccn(Cc2ccc(-c3ccccc3)cc2)c1=O)C(=O)O` [Compound 22, (2S)-2-({[1-(biphenyl-4-ylmethyl)-2-oxo-1,2-dihydropylidin-3-yl]carbonyl}amino)-5-carbamimidamidopentanoic acid] and `N=C(N)NCCC[C@H](NC(=O)c1cccn(Cc2cccc(F)c2)c1=O)C(=O)O` [Compound 39, (2S)-5-carbamimidamido-2-({[1-(3-fluorobenzyl)-2-oxo-1,2-dihydropyridin-3-yl]carbonyl}amino)pentanoic acid•TFA] cannot be ordered by IC50: < 0.05 µM for the first, < 0.05 µM for the second.

Compared with `CC1(C)CCC(C)(C)c2cc(Cn3cccc(C(=O)N[C@@H](CCCNC(=N)N)C(=O)O)c3=O)ccc21` [Compound 16, (2S)-5-carbamimidamido-2-[({2-oxo-1-[(5,5,8,8-tetramethyl-5,6,7,8-tetrahydro-2-naphthyl)methyl]-1,2-dihydropyridin-3-yl}carbonyl)amino]pentanoic acid•TFA], `Cc1ccc(C(=O)N[C@@H](CCCNC(=N)N)C(=O)O)c(=O)n1Cc1ccccc1` [Compound 35, (2S)-2-{[(1-benzyl-6-methyl-2-oxo-1,2-dihydropyridin-3-yl)carbonyl]amino}-5-carbamimidamidopentanoic acid•TFA] is lower in IC50: 0.5 to 20 µM for the first, 0.05 to 0.5 µM for the second.

same assay, conditions: 0.1 nM [125I]-C3a, 3 hours at room temperature; Table 2

In the case of `N=C(N)NCCC[C@H](NC(=O)c1cccn(C(c2ccc(F)cc2)c2ccc(F)cc2)c1=O)C(=O)O` [Compound 44, (2S)-2-[({1-[bis(4-fluorophenyl)methyl]-2-oxo-1,2-dihydropyridin-3-yl}carbonyl)amino]-5-carbamimidamidopentanoic acid•TFA], the IC50 is reported as < 0.05 µM.

same assay, conditions: 0.1 nM [125I]-C3a, 3 hours at room temperature; Table 3

With `N=C(N)NCCC[C@H](NC(=O)c1ccn(Cc2ccccc2)c(=O)c1)C(=O)O` [Compound 53, (2S)-2-{[(1-benzyl-2-oxo-1,2-dihydropyridin-4-yl)carbonyl]amino}-5-carbamimidamidopentanoic acid•TFA] the IC50 was 0.05 to 0.5 µM.

same assay, conditions: 0.1 nM [125I]-C3a, 3 hours at room temperature; Table 4

`COC(=O)[C@H](CCCNC(=N)N[N+](=O)[O-])NC(=O)c1cccn(C(c2ccccc2)c2ccccc2)c1=O` [Compound 75, methyl (2S)-2-({[1-(diphenylmethyl)-2-oxo-1,2-dihydropyridin-3-yl]carbonyl}amino)-5-(nitrocarbamimidamido)pentanoate] and `N=C(N)NCCC[C@H](NC(=O)c1cccn(C(c2ccccc2)c2ccccc2)c1=O)C(N)=O` [Compound 81, N-[(1S)-4-carbamimidamido-1-carbamoylbutyl]-1-(diphenylmethyl)-2-oxo-1,2-dihydropyridine-3-carboxamide-TFA] fall in the same range of IC50: 0.5 to 20 µM for the first, 0.5 to 20 µM for the second.

With `CCOC(=O)N=C(N)NCCC[C@H](NC(=O)c1cccn(C(c2ccccc2)c2ccccc2)c1=O)C(=O)O` [Compound 83, (2S)-2-({[1-(diphenylmethyl)-2-oxo-1,2-dihydropyridin-3-yl]carbonyl}amino)-5-[(ethoxycarbonyl)carbamimidamido]pentanoic acid] the IC50 was 0.5 to 20 µM.

same assay, conditions: 0.1 nM [125I]-C3a, 3 hours at room temperature; Table 6

`CC(=N)Nc1ccc([C@H](NC(=O)c2ccc(C(c3ccccc3)c3ccccc3)s2)C(=O)O)cc1` [Compound 135, (2S)-({[5-(Diphenylmethyl)thiophen-2-yl]carbonyl}amino)[4-(ethanimidoylamino)phenyl]ethanoicacid] and `CC(=N)Nc1cccc([C@H](NC(=O)c2ccc(C(c3ccccc3)c3ccccc3)s2)C(=O)O)c1` [Compound 134, (2S)-({[5-(Diphenylmethyl)thiophen-2-yl]carbonyl}amino)[3-(ethanimidoylamino)phenyl]ethanoicacid] fall in the same range of IC50: 0.5 to 20 µM for the first, 0.5 to 20 µM for the second.

First: O=C(N[C@@H](Cc1c[nH]c2ccccc12)C(=O)O)c1cccn(C(c2ccccc2)c2ccccc2)c1=O [Compound 105, (2S)-2-({[1-(Diphenylmethyl)-2-oxo-1,2-dihydropyridin-3-yl]carbonyl}amino)-3-(1H-indol-3-yl)propanoicacid]
Second: CC(=N)NCCC[C@H](NC(=O)c1cccn(C(c2ccccc2)c2ccccc2)c1=O)C(=O)O [Compound 86, (2S)-2-({[1-(diphenylmethyl)-2-oxo-1,2-dihydropyridin-3-yl]carbonyl}amino)-5-(ethanimidoylamino)pentanoic acid•TFA]
The IC50 of the first is higher: 0.05 to 0.5 µM for the first, < 0.05 µM for the second.

Compared with `CC(=N)NCCC[C@H](NC(=O)c1ccc(C(c2cccc(Cl)c2)c2cccc(Cl)c2)s1)C(=O)O` [Compound 131, (2S)-2-[({5-[bis(3-chlorophenyl)methyl]thiophen-2-yl}carbonyl)amino]-5-(ethanimidoylamino)pentanoic acid•TFA], `CC(=N)NCCC[C@H](NC(=O)c1ccc(C(c2cccc(F)c2)c2cccc(F)c2)s1)C(=O)O` [Compound 129, (2S)-2-[({5-[bis(3-fluorophenyl)methyl]thiophen-2-yl}carbonyl)amino]-5-(ethanimidoylamino)pentanoic acid•TFA] is higher in IC50: < 0.05 µM for the first, 0.05 to 0.5 µM for the second.

First: CC(C)C(=N)NCCC[C@H](NC(=O)c1ccc(C(c2ccccc2)c2ccccc2)s1)C(=O)O [Compound 132, (2S)-2-({[5-(diphenylmethyl)thiophen-2-yl]carbonyl}amino)-5-[(2-methylpropanimidoyl)amino]pentanoic acid•TFA]
Second: C/C(=N\O)NCCC[C@H](NC(=O)c1ccc(C(c2ccccc2)c2ccccc2)s1)C(=O)O [Compound 136, (2S)-2-({[5-(diphenylmethyl)thiophen-2-yl]carbonyl}amino)-5-{[1-(hydroxyamino)ethylidene]amino}pentanoic acid•TFA]
The IC50 of the first is higher: 0.5 to 20 µM for the first, 0.05 to 0.5 µM for the second. The second is the more potent here.

`CC(=N)NCCC[C@H](NC(=O)c1cccn(Cc2cccc(Cl)c2)c1=O)C(=O)O` [Compound 101, (2S)-2-({[1-(3-chlorobenzyl)-2-oxo-1,2-dihydropyridin-3-yl]carbonyl}amino)-5-(ethanimidoylamino)pentanoic acid•TFA] and `CC(=N)NCCC[C@H](NC(=O)c1cccn(Cc2ccc(Br)cc2)c1=O)C(=O)O` [Compound 110, (2S)-2-({[1-(4-bromobenzyl)-2-oxo-1,2-dihydropyridin-3-yl]carbonyl}amino)-5-(ethanimidoylamino)pentanoic acid•TFA] fall in the same range of IC50: 0.05 to 0.5 µM for the first, 0.05 to 0.5 µM for the second.

`N=C(NCCC[C@H](NC(=O)c1ccc(C(c2ccccc2)c2ccccc2)s1)C(=O)O)c1ccccc1` [Compound 120, (2S)-2-({[5-(diphenylmethyl)thiophen-2-yl]carbonyl}amino)-5-{[imino(phenyl)methyl]amino}pentanoic acid•TFA] and `N=C(NCCC[C@H](NC(=O)c1ccc(C(c2ccccc2)c2ccccc2)s1)C(=O)O)c1ccccn1` [Compound 119, (2S)-2-({[5-(diphenylmethyl)thiophen-2-yl]carbonyl}amino)-5-{[imino(pyridin-2-yl)methyl]amino}pentanoic acid•TFA] fall in the same range of IC50: 0.5 to 20 µM for the first, 0.5 to 20 µM for the second.

Compared with `N=CNCCC[C@H](NC(=O)c1ccc(C(c2ccccc2)c2ccccc2)s1)C(=O)O` [Compound 133, (2S)-2-({[5-(diphenylmethyl)thiophen-2-yl]carbonyl}amino)-5-[(iminomethyl)amino]pentanoic acid•TFA], `CCOC(=O)CC(=N)NCCC[C@H](NC(=O)c1ccc(C(c2ccccc2)c2ccccc2)s1)C(=O)O` [Compound 123, (2S)-2-({[5-(diphenylmethyl)thiophen-2-yl]carbonyl}amino)-5-[(3-ethoxy-3-oxopropanimidoyl)amino]pentanoic acid•TFA] is higher in IC50: 0.05 to 0.5 µM for the first, 0.5 to 20 µM for the second.

First: CC(=N)NCCC[C@H](NC(=O)c1cccn(Cc2cc(F)cc(F)c2)c1=O)C(=O)O [Compound 117, (2S)-2-({[1-(3,5-difluorobenzyl)-2-oxo-1,2-dihydropyridin-3-yl]carbonyl}amino)-5-(ethanimidoylamino)pentanoic acid•TFA]
Second: N=C(CC(=O)O)NCCC[C@H](NC(=O)c1cccn(C(c2ccccc2)c2ccccc2)c1=O)C(=O)O [Compound 96, (2S)-5-[(2-carboxyethanimidoyl)amino]-2-({[1-(diphenylmethyl)-2-oxo-1,2-dihydropyridin-3-yl]carbonyl}amino)pentanoic acid•TFA]
The IC50 of the first is higher: 0.05 to 0.5 µM for the first, < 0.05 µM for the second.

`N=C(N)NC(=O)CC[C@H](NC(=O)c1ccc(C(c2ccccc2)c2ccccc2)cc1)C(=O)O` [Compound 111, (2S)-5-Carbamimidamido-2-({[4-(diphenylmethyl)phenyl]carbonyl}amino)-5-oxopentanoic acid] and `CCN(CC)CCC[C@H](NC(=O)c1cccn(C(c2ccccc2)c2ccccc2)c1=O)C(=O)O` [Compound 95, (2S)-5-(Diethylamino)-2-({[1-(diphenylmethyl)-2-oxo-1,2-dihydropyridin-3-yl]carbonyl}amino)pentanoic acid] cannot be ordered by IC50: < 0.05 µM for the first, < 0.05 µM for the second.
